Reference: patent US8129417B2, “Substituted octahydrocyclopenta[C]pyrrol-4-amines as calcium channel blockers” (Abbott Laboratories, priority 2008, dated 2012)

Legend:
[1] = biological target: human Cav2.2 (Homo sapiens, UniProt Q00975); assay: Assessment of calcium channel activity using FLIPR (Ca2+ influx in IMR32 cells); format: cell-based; details: 60 minute pre-incubation with compound, 2 μM nifedipine, depolarized with 80 mM KCl
Method in brief: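 IC50 came from sigmoidal non-linear regression of percent inhibition, relative to uninhibited activity, across compound concentrations. Calcium influx was measured by FLIPR in IMR32 cells plated at 1-1.2×10^5 cells/well and cultured 48 h at 37 °C.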

[2] = system: Sprague Dawley rats; assay: Capsaicin induced secondary mechanical hyperalgesia model; format: in vivo; details: po, 1 h, read-out: % inhibition @ 30 mg/kg p.o., 60 minutes before testing, secondary mechanical hyperalgesia 180 minutes after intraplantar capsaicin, rat
Method: (ii) In Vivo Data—Capsaicin Induced Secondary Mechanical Hyperalgesia Model:
Sprague Dawley rats were briefly restrained, and capsaicin was administered at 10 μg in 10 μL of vehicle by intraplantar injection into the center of the right hind paw. Secondary mechanical hyperalgesia (SMH) was measured at the heel away from the site of injection 180 minutes following capsaicin exposure. Compounds and gabapentin (positive control), were administered p.o. 60 minutes before testing (2 hours after capsaicin) or i.p. 30 minutes before testing (2.5 hours after capsaicin). SMH was measured using calibrated von Frey filaments (Stoelting, Woodale, Ill.). Following the 1 hour habituation in the testing room, rats were moved to individual plexiglass chambers that sit on top of a wire mesh to allow for access for stimulation of the plantar surface of the hind paws. Rats were allowed to acclimate to the new chambers for 15 minutes before the onset of testing. The paw withdrawal threshold was determined by increasing and decreasing stimulus intensity (force: g) and calculated using Dixon's up-down method (Chaplan, S. R.; Bach, F. W.; Pogrel, J. W.; Chung, J. M.; Yaksh, T. L.; Quantitative assessment of tactile allodynia in the rat paw. J. Neuroscience Methods 1994, 53(1), 55-63.). The filaments (maximum force of 15.0 g) were held in place for 8 seconds or until there was a withdrawal response from the mechanical stimulation.

Chain of human Cav2.2 (Q00975 whole entry): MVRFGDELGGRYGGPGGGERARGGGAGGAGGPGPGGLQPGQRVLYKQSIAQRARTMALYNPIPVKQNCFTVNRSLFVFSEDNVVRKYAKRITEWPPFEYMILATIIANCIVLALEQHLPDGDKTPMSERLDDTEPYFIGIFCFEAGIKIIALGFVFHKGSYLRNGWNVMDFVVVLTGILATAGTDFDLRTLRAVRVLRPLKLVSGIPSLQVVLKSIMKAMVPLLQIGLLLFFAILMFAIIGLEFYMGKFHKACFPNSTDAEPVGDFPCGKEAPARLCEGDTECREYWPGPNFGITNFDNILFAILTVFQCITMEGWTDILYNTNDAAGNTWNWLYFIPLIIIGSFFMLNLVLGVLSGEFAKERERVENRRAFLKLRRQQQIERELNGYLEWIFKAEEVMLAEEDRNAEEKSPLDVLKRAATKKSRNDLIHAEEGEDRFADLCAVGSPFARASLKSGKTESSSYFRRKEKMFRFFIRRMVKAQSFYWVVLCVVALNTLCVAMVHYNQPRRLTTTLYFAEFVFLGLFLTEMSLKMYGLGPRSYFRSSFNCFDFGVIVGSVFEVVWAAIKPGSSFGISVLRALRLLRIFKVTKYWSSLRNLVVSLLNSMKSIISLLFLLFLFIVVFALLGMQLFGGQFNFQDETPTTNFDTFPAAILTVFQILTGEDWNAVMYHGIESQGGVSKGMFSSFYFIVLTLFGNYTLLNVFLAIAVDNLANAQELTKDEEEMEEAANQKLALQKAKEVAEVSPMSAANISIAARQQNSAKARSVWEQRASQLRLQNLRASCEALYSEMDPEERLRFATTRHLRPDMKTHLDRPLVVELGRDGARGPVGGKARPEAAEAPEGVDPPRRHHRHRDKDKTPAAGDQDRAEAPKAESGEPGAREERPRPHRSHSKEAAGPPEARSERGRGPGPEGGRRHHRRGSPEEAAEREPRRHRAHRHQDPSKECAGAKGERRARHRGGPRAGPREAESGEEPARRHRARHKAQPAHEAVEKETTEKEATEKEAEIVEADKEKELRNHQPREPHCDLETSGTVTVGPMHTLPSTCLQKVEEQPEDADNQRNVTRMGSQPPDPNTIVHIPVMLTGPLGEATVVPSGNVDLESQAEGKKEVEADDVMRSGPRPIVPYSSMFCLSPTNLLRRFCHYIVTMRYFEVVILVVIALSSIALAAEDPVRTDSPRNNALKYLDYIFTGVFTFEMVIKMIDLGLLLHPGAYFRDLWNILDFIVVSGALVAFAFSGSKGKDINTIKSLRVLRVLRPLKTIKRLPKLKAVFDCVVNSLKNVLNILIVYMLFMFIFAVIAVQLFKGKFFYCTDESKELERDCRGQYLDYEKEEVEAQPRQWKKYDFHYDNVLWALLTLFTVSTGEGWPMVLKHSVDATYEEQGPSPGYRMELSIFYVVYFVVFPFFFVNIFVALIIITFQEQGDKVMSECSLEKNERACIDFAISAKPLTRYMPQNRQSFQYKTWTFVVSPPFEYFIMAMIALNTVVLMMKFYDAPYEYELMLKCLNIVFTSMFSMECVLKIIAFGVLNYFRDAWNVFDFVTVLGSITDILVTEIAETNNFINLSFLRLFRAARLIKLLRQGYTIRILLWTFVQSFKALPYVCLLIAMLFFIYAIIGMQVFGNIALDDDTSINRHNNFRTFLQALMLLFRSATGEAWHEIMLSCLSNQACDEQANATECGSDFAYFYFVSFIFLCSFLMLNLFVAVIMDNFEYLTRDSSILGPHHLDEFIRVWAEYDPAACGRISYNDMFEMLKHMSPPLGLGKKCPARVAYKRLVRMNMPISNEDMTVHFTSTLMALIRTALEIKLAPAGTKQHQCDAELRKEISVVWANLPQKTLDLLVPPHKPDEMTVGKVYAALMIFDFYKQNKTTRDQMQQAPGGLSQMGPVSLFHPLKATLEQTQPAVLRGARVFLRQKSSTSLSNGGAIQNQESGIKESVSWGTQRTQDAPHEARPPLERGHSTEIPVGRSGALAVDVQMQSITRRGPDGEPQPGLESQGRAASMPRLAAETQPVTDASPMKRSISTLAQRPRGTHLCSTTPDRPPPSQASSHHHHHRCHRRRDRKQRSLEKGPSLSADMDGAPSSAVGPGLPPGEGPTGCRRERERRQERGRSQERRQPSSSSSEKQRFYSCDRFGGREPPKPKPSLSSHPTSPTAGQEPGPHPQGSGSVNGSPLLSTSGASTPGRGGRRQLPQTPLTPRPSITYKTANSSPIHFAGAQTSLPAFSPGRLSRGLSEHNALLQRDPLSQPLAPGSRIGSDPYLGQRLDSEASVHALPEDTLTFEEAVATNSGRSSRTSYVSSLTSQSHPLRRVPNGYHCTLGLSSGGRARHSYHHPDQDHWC
Chain of human Cav2.2 (P54289 25-946 partner limits assumed): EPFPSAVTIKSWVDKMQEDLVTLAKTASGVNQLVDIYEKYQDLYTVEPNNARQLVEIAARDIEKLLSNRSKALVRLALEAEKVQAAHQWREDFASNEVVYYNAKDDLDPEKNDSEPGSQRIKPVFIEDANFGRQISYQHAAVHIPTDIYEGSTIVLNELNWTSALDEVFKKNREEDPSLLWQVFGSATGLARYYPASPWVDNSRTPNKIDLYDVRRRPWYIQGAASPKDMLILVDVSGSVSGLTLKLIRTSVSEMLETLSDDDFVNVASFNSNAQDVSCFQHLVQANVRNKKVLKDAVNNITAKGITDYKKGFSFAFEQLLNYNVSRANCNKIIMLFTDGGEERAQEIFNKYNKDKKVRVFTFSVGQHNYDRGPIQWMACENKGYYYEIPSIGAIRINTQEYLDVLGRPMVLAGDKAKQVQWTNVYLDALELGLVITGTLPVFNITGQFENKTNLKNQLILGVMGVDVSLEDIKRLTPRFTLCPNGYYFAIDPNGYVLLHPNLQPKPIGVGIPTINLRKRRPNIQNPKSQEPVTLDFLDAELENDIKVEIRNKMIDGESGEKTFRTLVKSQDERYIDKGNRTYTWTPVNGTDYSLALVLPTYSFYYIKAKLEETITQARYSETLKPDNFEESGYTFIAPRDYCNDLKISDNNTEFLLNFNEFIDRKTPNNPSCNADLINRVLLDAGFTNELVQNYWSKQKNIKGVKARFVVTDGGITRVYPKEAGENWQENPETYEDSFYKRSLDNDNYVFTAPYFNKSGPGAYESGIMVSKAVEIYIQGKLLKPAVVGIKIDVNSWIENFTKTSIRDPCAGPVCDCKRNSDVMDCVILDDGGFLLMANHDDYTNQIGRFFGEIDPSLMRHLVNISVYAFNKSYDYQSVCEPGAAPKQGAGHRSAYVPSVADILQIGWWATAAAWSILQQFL
Chain of human Cav2.2 (P54289 947-1103 partner limits assumed): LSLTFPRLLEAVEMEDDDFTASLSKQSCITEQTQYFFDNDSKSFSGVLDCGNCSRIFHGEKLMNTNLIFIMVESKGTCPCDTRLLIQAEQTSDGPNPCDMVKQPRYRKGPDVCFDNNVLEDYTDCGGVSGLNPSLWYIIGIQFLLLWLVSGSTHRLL
Chain of human Cav2.2 (P54284 whole entry partner): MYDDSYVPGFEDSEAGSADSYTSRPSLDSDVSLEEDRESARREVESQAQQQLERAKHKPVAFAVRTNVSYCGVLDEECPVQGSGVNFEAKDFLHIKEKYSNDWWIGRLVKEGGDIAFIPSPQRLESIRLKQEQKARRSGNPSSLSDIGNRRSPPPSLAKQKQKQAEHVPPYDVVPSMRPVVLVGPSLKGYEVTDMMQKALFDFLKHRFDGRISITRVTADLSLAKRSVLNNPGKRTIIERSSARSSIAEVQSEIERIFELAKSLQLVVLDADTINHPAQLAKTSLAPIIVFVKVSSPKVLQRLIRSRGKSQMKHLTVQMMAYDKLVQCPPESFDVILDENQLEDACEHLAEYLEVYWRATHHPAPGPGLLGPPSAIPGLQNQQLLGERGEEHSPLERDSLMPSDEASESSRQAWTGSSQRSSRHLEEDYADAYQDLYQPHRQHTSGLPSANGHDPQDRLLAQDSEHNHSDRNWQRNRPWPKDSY

| Structure (SMILES) | IC50 [1] [nM] | inhibition in vivo at 30 mg/kg [2] [%] |
| --- | --- | --- |
| O=C(N[C@H]1CC[C@H]2CN(Cc3cccc(C(F)(F)F)c3)C[C@H]21)C(C1CCCCC1)C1CCCCC1 [Example 54, 2,2-dicyclohexyl-N-{(3aS,4S,6aR)-2-[3-(trifluoromethyl)benzyl]octahydrocyclopenta[c]pyrrol-4-yl}acetamide] | 500 | 38 |
| O=C(N[C@@H]1CC[C@H]2CN(Cc3cccc(C(F)(F)F)c3)C[C@H]21)C(C1CCCCC1)C1CCCCC1 [Example 75, 2,2-dicyclohexyl-N-{(3aS,4R,6aR)-2-[3-(trifluoromethyl)benzyl]octahydrocyclopenta[c]pyrrol-4-yl}acetamide] | 500 | 85 |
| O=C(N[C@H]1CC[C@@H]2CN(Cc3cccc(C(F)(F)F)c3)C[C@@H]21)C(C1CCCCC1)C1CCCCC1 [Example 156, 2,2-dicyclohexyl-N-{(3aR,4S,6aS)-2-[3-(trifluoromethyl)benzyl]octahydrocyclopenta[c]pyrrol-4-yl}acetamide] | 800 | 67 |
| O=C(N[C@@H]1CC[C@@H]2CN(Cc3cccc(C(F)(F)F)c3)C[C@@H]21)C(C1CCCCC1)C1CCCCC1 [Example 157, 2,2-dicyclohexyl-N-{(3aR,4R,6aS)-2-[3-(trifluoromethyl)benzyl]octahydrocyclopenta[c]pyrrol-4-yl}acetamide] | 2100 | 57 |
| CC(C)C[C@H](NS(C)(=O)=O)C(=O)N[C@@H]1CC[C@H]2CN(Cc3cccc(C(F)(F)F)c3)C[C@H]21 [Example 170, N^2-(methylsulfonyl)-N^1-{(3aS,4R,6aR)-2-[3-(trifluoromethyl)benzyl]octahydrocyclopenta[c]pyrrol-4-yl}-L-leucinamide] |  | 57 |
| CC(C)C[C@H](NS(=O)(=O)C1CC1)C(=O)N[C@@H]1CC[C@H]2CN(Cc3cccc(C(F)(F)F)c3)C[C@H]21 [Example 172, N^2-(cyclopropylsulfonyl)-N^1-{(3aS,4R,6aR)-2-[3-(trifluoromethyl)benzyl]octahydrocyclopenta[c]pyrrol-4-yl}-L-leucinamide] |  | 85 |
| CN[C@@H](CC(C)C)C(=O)N[C@@H]1CC[C@H]2CN(S(=O)(=O)c3ccc(C(F)(F)F)cc3)C[C@H]21 [Example 183, N^2-methyl-N^1-((3aS,4R,6aR)-2-{[4-(trifluoromethyl)phenyl]sulfonyl}octahydrocyclopenta[c]pyrrol-4-yl)-L-leucinamide] |  | 78 |
| CCC[C@H](NC)C(=O)N[C@H]1CC[C@@H]2CN(S(=O)(=O)c3ccc(C(F)(F)F)cc3)C[C@@H]21 [Example 405, N^2-methyl-N^1-((3aR,4S,6aS)-2-{[4-(trifluoromethyl)phenyl]sulfonyl}octahydrocyclopenta[c]pyrrol-4-yl)-L-norvalinamide] |  | 32 |
| CC(C)(C)C[C@H](NCC1CC1)C(=O)N[C@H]1CC[C@@H]2CN(c3cccc(C(F)(F)F)n3)C[C@@H]21 [Example 479, N^2-(cyclopropylmethyl)-4-methyl-N^1-{(3aR,4S,6aS)-2-[6-(trifluoromethyl)pyridin-2-yl]octahydrocyclopenta[c]pyrrol-4-yl}-L-leucinamide] |  | 40 |
| CC(C)N[C@@H](CC(C)(C)C)C(=O)N[C@H]1CC[C@@H]2CN(C(=O)[C@H](CC(C)(C)C)NC(C)C)C[C@@H]21 [Example 488, N^2-isopropyl-N^1-[(3aR,4S,6aS)-2-(N-isopropyl-4-methyl-L-leucyl)octahydrocyclopenta[c]pyrrol-4-yl]-4-methyl-L-leucinamide] | 7430 | 55 |
| CC(C)N[C@@H](CC(C)(C)C)C(=O)N[C@H]1CC[C@@H]2CN(C(=O)[C@H](Cc3ccccc3)NC(C)C)C[C@@H]21 [Example 489, N^2-isopropyl-N^1-[(3aR,4S,6aS)-2-(N-isopropyl-L-phenylalanyl)octahydrocyclopenta[c]pyrrol-4-yl]-4-methyl-L-leucinamide] | 9760 | 47 |

The next lines start with results.

| IC50 [1] [nM] | Structure (SMILES) | inhibition in vivo at 30 mg/kg [2] [%] |
| --- | --- | --- |
| 33300 | CN[C@@H](CC(C)C)C(=O)N[C@@H]1CC[C@H]2CN(Cc3ccccc3)C[C@H]21 [Example 165, N^1-[(3aS,4R,6aR)-2-benzyloctahydrocyclopenta[c]pyrrol-4-yl]-N^2-methyl-L-leucinamide] | 92 |
| > 9000 | CC(C)C[C@@H](C(=O)N[C@@H]1CC[C@H]2CN(Cc3ccccc3)C[C@H]21)N1CCCS1(=O)=O [Example 220, (2S)—N-[(3aS,4R,6aR)-2-benzyloctahydrocyclopenta[c]pyrrol-4-yl]-2-(1,1-dioxidoisothiazolidin-2-yl)-4-methylpentanamide] | 76 |
| 5040 | CCC[C@H](NC(=O)OC(C)C)C(=O)N[C@H]1CC[C@@H]2CN(Cc3ccc(C(F)(F)F)cc3)C[C@@H]21 [Example 280, isopropyl(S)-1-oxo-1-((3aR,4S,6aS)-2-(4-(trifluoromethyl)benzyl)octahydrocyclopenta[c]pyrrol-4-ylamino)pentan-2-ylcarbamate] | 38 |
| 2970 | CN[C@@H](CC(C)(C)C)C(=O)N[C@H]1CC[C@@H]2CN(S(=O)(=O)c3ccc(C(F)(F)F)cc3)C[C@@H]21 [Example 415, N^2,4-dimethyl-N^1-((3aR,4S,6aS)-2-{[4-(trifluoromethyl)phenyl]sulfonyl}octahydrocyclopenta[c]pyrrol-4-yl)-L-leucinamide] | 52 |
| 750 | CC(C)(C)C[C@H](NCC1CC1)C(=O)N[C@H]1CC[C@@H]2CN(c3ccc(C(F)(F)F)cn3)C[C@@H]21 [Example 478, N^2-(cyclopropylmethyl)-4-methyl-N^1-{(3aR,4S,6aS)-2-[5-(trifluoromethyl)pyridin-2-yl]octahydrocyclopenta[c]pyrrol-4-yl}-L-leucinamide] | 57 |
| 1450 | O=C(N[C@H]1CC[C@@H]2CN(c3cccc(C(F)(F)F)n3)C[C@@H]21)c1ccc(F)cc1 [Example 560, 4-fluoro-N-{(3aR,4S,6aS)-2-[6-(trifluoromethyl)pyridin-2-yl]octahydrocyclopenta[c]pyrrol-4-yl}benzamide] | 42 |
